Assay results: ChEMBL document CHEMBL5532675, “Discovery of 4-Ethoxy-6-chloro-5-azaindazoles as Novel PDE4 Inhibitors for the Treatment of Alcohol Use Disorder and Alcoholic Liver Diseases” (J Med Chem, 2024)
The source made the active and inactive calls. The rule behind the calls is not given here.

Columns and labels:
[1] = Drug concentration in Sprague-Dawley rat liver at 10 mg/kg, po administered as single dose for 2 hrs by LC-MS analysis; type: ADME, organism-based; conditions: read-out: Ct
[2] = Oral bioavailability in Sprague-Dawley rat at 10 mg/kg measured after 24 hrs by LC-MS analysis; type: ADME, organism-based; conditions: in vivo
Mus musculus [3] = experiment: Protection against alcoholic liver disease in NIAAA C57BL/6J mouse model assessed as reduction in serum IL-6 level at 1 to 2.5 mg/kg, po preadministered with 1 to 4 % of alcohol for 10 days with subsequent compound addition from day 6 to 11 and further administered with 31.25 % alcohol on day 11 and measured after 9 hrs by ELISA; type: functional, organism-based; conditions: dose 1-2.5 mg/kg, time 5.0 day
[4] = Selectivity ratio for inhibition of PDE3B (unknown origin) using FAM-cyclic-3',5'-AMP as substrate to inhibition of PDE4D7 (unknown origin) using FAM-cyclic-3',5'-AMP as substrate
[5] = molecular target: 3',5'-cyclic-AMP phosphodiesterase 4B (Homo sapiens, UniProt Q07343); experiment: Inhibition of PDE4B1 (unknown origin) using FAM-cyclic-3',5'-AMP as substrate incubated for 1 hrs by fluorescence polarization based IMAP assay
[6] = Selectivity ratio for inhibition of PDE9A (unknown origin) using FAM-cyclic-3',5'-AMP as substrate to inhibition of PDE4D7 (unknown origin) using FAM-cyclic-3',5'-AMP as substrate
Mus musculus [7] = experiment: Protection against alcohol use disorder in C57BL/6J mouse model assessed as decrease in alcohol intake at 1 to 2.5 mg/kg, po pre-trained with alcohol and water for 42 days with subsequent compound addition from day 22 to day 42 followed by 3.5 hrs of darkness and compound administration for 30 mins followed by water replacement with alcohol for 4 hrs on day 46 by Drink-in-Dark test; type: functional, organism-based; conditions: dose 1-2.5 mg/kg, time 23.0 day
[8] = AUC (0 to t) in Sprague-Dawley rat at 2 mg/kg, iv measured after 24 hrs by LC-MS analysis; type: ADME, organism-based; conditions: in vivo
[9] = Drug concentration in Sprague-Dawley rat plasma at 10 mg/kg, po administered as single dose for 1 hrs by LC-MS analysis; type: ADME, organism-based
Mus musculus [10] = experiment: Protection against alcohol-induced motor impairment in C57BL/6J mouse model assessed as short recovery time by measuring latency to falling off at 1 mg/kg, po preadministered with compound every 24 hrs for 3 times followed by alcohol administration 30 mins post last dose and further treated with compound for 3 days followed by alcohol administration 30 mins post last dose and measured at 2 to 20 mins by rotarod test; type: functional, organism-based; conditions: time 8702-8720 min
Mus musculus [11] = experiment: Protection against alcoholic liver disease in NIAAA C57BL/6J mouse model assessed as improvement of steatosis at 1 to 2.5 mg/kg, po preadministered with 1 to 4 % of alcohol for 10 days with subsequent compound addition from day 6 to 11 and further administered with 31.25 % alcohol on day 11 and measured after 9 hrs by H&E staining based light microscopic analysis; type: functional, organism-based; conditions: dose 1-2.5 mg/kg, time 5.0 day
[12] = Selectivity ratio for inhibition of PDE3B (unknown origin) using FAM-cyclic-3',5'-AMP as substrate to inhibition of PDE4B1 (unknown origin) using FAM-cyclic-3',5'-AMP as substrate
[13] = molecular target: T1, 3',5'-cyclic-AMP phosphodiesterase 4D (Homo sapiens, UniProt Q08499); experiment: Inhibition of PDE4D7 (unknown origin) using FAM-cyclic-3',5'-AMP as substrate at 10 nM incubated for 1 hrs by fluorescence polarization based IMAP assay relative to control
[14] = Chemical stability of compound in aqueous solution at pH <6 measured after 48 hrs; type: physicochemical; conditions: buffer
Mus musculus [15] = experiment: Protection against alcoholic liver disease in NIAAA C57BL/6J mouse model assessed as decrease in serum AST level at 1 to 2.5 mg/kg, po preadministered with 1 to 4 % of alcohol for 10 days with subsequent compound addition from day 6 to 11 and further administered with 31.25 % alcohol on day 11 and measured after 9 hrs by absorbance based plate analyzer; type: functional, organism-based; conditions: dose 1-2.5 mg/kg, time 5.0 day
[16] = molecular target: High affinity cGMP-specific 3',5'-cyclic phosphodiesterase 9A (Homo sapiens) (UniProt O76083); experiment: Inhibition of PDE9A (unknown origin) using FAM-cyclic-3',5'-AMP as substrate at 10 uM incubated for 1 hrs by fluorescence polarization based IMAP assay relative to control
Mus musculus [17] = experiment: Protection against alcohol exposure-induced anxiety like behavior in C57BL/6J mouse model assessed as increase in center time at 1 to 2.5 mg/kg, po pre-trained with alcohol and water for 42 days with subsequent compound addition from day 22 to day 42 followed by 3.5 hrs of darkness and compound administration for 30 mins followed by water replacement with alcohol for 4 hrs and measured 24 hrs after alcohol withdrawal by open field test; type: functional, organism-based; conditions: dose 1-2.5 mg/kg
Mus musculus [18] = experiment: Protection against alcohol use disorder in C57BL/6J mouse model assessed as decrease in alcohol preference at 1 to 2.5 mg/kg, po pre-trained with alcohol and water for 42 days with subsequent compound addition on day 22 and measured after 3 weeks by two-bottle choice test; type: functional, organism-based; conditions: dose 1-2.5 mg/kg
[19] = molecular target: T1, 3',5'-cyclic-AMP phosphodiesterase 4D; experiment: Inhibition of PDE4D7 (unknown origin) using FAM-cyclic-3',5'-AMP as substrate at 100 nM incubated for 1 hrs by fluorescence polarization based IMAP assay relative to control
Mus musculus [20] = experiment: Protection against alcohol-induced motor impairment in C57BL/6J mouse model assessed as increase in distance travelled at 1 to 2.5 mg/kg, po preadministered with compound every 24 hrs for 3 times followed by alcohol administration 30 mins post last dose and further treated with compound for 3 days followed by alcohol administration 30 mins post last dose and measured at 2 to 20 mins by open field test; type: functional, organism-based; conditions: dose 1-2.5 mg/kg, time 8702-8720 min
[21] = Chemical stability of compound in aqueous solution at pH >10 measured after 48 hrs; type: physicochemical; conditions: buffer
[22] = AUC (0 to infinity) in Sprague-Dawley rat at 2 mg/kg, iv measured after 24 hrs by LC-MS analysis; type: ADME, organism-based; conditions: in vivo
Mus musculus [23] = experiment: Protection against alcoholic liver disease in NIAAA C57BL/6J mouse model assessed as improvement of liver injury at 1 to 2.5 mg/kg, po preadministered with 1 to 4 % of alcohol for 10 days with subsequent compound addition from day 6 to 11 and further administered with 31.25 % alcohol on day 11 and measured after 9 hrs by H&E staining based light microscopic analysis; type: functional, organism-based; conditions: dose 1-2.5 mg/kg, time 5.0 day
[24] = Toxicity in ketamine/xylazine-induced anesthetic C57BL/6J mouse model assessed as emetogenic potential by measuring reduction in anesthesia duration at 1 to 5 mg/kg, po preadministered with compound for 15 mins followed by ketamine/xylazine administration; type: organism-based; conditions: in vivo, 0.25 h, dose 1-5 mg/kg
[25] = Acute toxicity in C57BL/6J mouse assessed as poisoning symptoms at 1 g/Kg, po administered for 14 days; type: organism-based; conditions: in vivo, 1000 mg/kg, 336 h, time 14 day
Mus musculus [26] = experiment: Protection against alcoholic liver disease in NIAAA C57BL/6J mouse model assessed as decrease in liver index at 2.5 mg/kg, po preadministered with 1 to 4 % of alcohol for 10 days with subsequent compound addition from day 6 to 11 and further administered with 31.25 % alcohol on day 11 and measured after 9 hrs; type: functional, organism-based; conditions: time 5.0 day

T1 sequence (Q08499 whole entry): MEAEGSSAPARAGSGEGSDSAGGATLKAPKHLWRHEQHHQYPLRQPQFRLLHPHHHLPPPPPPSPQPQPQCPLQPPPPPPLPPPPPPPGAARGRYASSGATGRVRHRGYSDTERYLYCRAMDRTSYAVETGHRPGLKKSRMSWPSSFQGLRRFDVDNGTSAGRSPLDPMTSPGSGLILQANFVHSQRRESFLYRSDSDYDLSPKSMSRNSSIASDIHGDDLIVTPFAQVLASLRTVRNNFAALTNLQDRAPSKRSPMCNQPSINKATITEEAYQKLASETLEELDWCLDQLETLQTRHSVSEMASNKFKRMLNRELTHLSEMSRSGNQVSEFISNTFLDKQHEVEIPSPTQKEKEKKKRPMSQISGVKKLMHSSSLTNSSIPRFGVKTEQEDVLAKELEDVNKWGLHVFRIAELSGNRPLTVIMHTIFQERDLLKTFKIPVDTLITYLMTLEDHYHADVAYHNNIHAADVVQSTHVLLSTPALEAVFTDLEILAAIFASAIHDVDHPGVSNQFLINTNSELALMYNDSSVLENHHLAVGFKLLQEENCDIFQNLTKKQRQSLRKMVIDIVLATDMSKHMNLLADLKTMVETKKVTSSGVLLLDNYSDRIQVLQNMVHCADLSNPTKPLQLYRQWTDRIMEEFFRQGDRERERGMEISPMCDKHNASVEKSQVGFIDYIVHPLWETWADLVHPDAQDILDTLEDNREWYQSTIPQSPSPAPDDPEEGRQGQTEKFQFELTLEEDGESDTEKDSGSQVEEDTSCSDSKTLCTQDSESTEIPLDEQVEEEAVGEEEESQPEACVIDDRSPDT
High affinity cGMP-specific 3',5'-cyclic phosphodiesterase 9A (Homo sapiens), sequence (O76083 whole entry): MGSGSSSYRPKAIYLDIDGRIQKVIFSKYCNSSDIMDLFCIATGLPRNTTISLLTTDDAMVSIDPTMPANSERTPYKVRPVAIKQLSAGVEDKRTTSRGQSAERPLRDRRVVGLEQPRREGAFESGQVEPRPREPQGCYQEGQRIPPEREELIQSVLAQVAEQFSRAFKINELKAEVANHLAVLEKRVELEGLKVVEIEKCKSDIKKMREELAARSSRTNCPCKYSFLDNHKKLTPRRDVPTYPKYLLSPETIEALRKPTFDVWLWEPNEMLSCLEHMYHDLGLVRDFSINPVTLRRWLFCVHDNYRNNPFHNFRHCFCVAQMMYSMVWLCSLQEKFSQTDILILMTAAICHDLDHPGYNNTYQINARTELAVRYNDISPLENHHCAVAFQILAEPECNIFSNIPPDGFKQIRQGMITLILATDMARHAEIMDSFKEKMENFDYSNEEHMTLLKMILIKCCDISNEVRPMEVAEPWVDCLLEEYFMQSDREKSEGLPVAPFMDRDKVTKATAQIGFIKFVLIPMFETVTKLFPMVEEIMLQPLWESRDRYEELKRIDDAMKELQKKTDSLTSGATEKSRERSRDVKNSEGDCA
3',5'-cyclic-AMP phosphodiesterase 4B, sequence (Q07343 whole entry): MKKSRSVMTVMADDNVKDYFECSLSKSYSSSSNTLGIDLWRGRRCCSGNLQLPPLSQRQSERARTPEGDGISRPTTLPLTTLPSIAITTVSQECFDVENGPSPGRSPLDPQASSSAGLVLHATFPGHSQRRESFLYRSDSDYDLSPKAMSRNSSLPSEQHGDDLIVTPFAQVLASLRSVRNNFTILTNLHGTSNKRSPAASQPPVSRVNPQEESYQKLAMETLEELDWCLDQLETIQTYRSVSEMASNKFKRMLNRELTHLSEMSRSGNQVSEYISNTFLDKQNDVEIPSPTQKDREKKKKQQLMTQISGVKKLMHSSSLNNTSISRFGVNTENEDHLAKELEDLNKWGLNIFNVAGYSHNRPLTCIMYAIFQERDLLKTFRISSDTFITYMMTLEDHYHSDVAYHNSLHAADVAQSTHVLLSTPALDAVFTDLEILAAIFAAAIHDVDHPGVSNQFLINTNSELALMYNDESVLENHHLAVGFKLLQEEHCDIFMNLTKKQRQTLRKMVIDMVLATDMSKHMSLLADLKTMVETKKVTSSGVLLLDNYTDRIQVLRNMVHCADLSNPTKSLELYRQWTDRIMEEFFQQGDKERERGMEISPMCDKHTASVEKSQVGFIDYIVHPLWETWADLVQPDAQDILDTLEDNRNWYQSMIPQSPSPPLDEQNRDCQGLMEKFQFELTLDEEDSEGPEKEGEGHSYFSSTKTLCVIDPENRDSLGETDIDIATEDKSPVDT

## CCOc1nc(Cl)cc2c1cnn2CCCC(=O)O
[1]
  concentration at 2 h: 8120 ng/g
[2]
  bioavailability: 94.1%
Mus musculus [3]
  Activity: Active
[4]
  Selectivity ratio: > 267
[5]
  IC50: 31 nM
[6]
  Selectivity ratio: > 267
Mus musculus [7]
  Activity: Active
[8]
  AUC(0-t) at 24 h: 142 µg·h/mL
[9]
  concentration at 1 h: 19500 ng/mL
Mus musculus [10]
  Activity: inactive
Mus musculus [11]
  Activity: Active
[12]
  Selectivity ratio: > 267
[13]
  inhibition: 21%
[14]
  Stability: Stable
Mus musculus [15]
  Activity: Active
[16]
  inhibition: 9%
Mus musculus [17]
  Activity: Active
Mus musculus [18]
  Activity: Active
[19]
  inhibition: 72%
Mus musculus [20]
  Activity: Active
[21]
  Stability: Stable
[22]
  AUC(0-inf): 143 µg·h/mL
Mus musculus [23]
  Activity: Active
[24]
  Activity: Non-Toxic
[25]
  Activity: Non-Toxic
Mus musculus [26]
  Activity: Active
